Reference: patent US20240081328A1, “Use of 4-Nitro-3-(Trifluoromethyl)Phenol in Killing or Controlling Pomacea Canaliculata, Method for Killing or Controlling Pomacea Canaliculata, and Molluscicide” (priority 2021, published 2024)
Read-outs that look alike come from different tables or passages of the source.

System: Pomacea canaliculata
Assay: Immersion test of dilutions in beakers, mortality rate of Pomacea canaliculata
Type: in vivo
Settings: for mortality at 0.0039 µg/mL / mortality at 0.0078 µg/mL / mortality at 0.0156 µg/mL / mortality at 0.0312 µg/mL / mortality at 0.0625 µg/mL / mortality at 0.125 µg/mL / mortality at 0.25 µg/mL / mortality at 0.5 µg/mL: Pomacea canaliculata, read-out: Mortality rate (%) of Pomacea canaliculata at different action time (h); for mortality at 0.0039 µg/mL: 0.0039 mg/L; for mortality at 0.0078 µg/mL: 0.0078 mg/L; for mortality at 0.0156 µg/mL: 0.0156 mg/L; for mortality at 0.0312 µg/mL: 0.0312 mg/L; for mortality at 0.0625 µg/mL: 0.0625 mg/L
Method: 0.5 mg of 4-nitro-3-(trifluoromethyl)phenol and 0.5 mg of niclosamide were completely dissolved in 1 mL of a dimethyl sulfoxide (DMSO) solution separately, and diluted to 1,000 mL with deaminized water to obtain a 4-nitro-3-(trifluoromethyl)phenol solution with a concentration of 0.5 mg/L and a niclosamide solution with a concentration of 0.5 mg/L.
The two solutions were separately diluted into 7 concentrations of dilutions using a doubling dilution method, including 0.25 mg/L, 0.125 mg/L, 0.0625 mg/L, 0.0312 mg/L, 0.0156 mg/L, and 0.0078 mg/L, and 0.0039 mg/L.
400 mL of the dilutions with different concentrations were separately poured into a 500 mL beaker, 10 Pomacea canaliculata samples were put into the dilution of each concentration, and each bottle mouth was sealed with wire mesh to completely immerse the Pomacea canaliculata in the dilution; clear water was used as a control group.
The experimental data were used to calculate the mortality rate of each treatment according to the following formula. Each calculation result was rounded to two decimal places. A formula for calculating the mortality rate was: […]
In the formula: P represented the mortality rate, in percentage (%); Σ^Ki represented • the number of dead Pomacea canaliculata, in snails; Σ^Ni represented the total number of treated Pomacea canaliculata, in snails.

`O=C(Nc1ccc([N+](=O)[O-])cc1Cl)c1cc(Cl)ccc1O` [niclosamide] was tested, and the “killing of Pomacea canaliculata (in words)” value (“killing” for short) (0.125 mg/L, within 24 h) was “all Pomacea canaliculata died”, the “killing” value (0.25 mg/L, action time 12 h) was “all Pomacea canaliculata died” and the “killing” value (0.5 mg/L, action time 12 h) was “all Pomacea canaliculata died”. It also gave a mortality at 0.0039 µg/mL (action time 0 h) of 0%, a mortality at 0.0039 µg/mL (action time 12 h) of 0% and a mortality at 0.0039 µg/mL (action time 24 h) of 20%. The mortality at 0.0039 µg/mL (action time 36 h) was 30%, the mortality at 0.0039 µg/mL (action time 48 h) was 30% and the mortality at 0.0039 µg/mL (action time 60 h) was 30%. The mortality at 0.0039 µg/mL (action time 72 h) was 40%, the mortality at 0.0078 µg/mL (action time 0 h) was 0% and the mortality at 0.0078 µg/mL (action time 12 h) was 10%. For the same compound, the mortality at 0.0078 µg/mL (action time 24 h) was 40%, the mortality at 0.0078 µg/mL (action time 36 h) was 40% and the mortality at 0.0078 µg/mL (action time 48 h) was 40%. The mortality at 0.0078 µg/mL (action time 60 h) was 40%, the mortality at 0.0078 µg/mL (action time 72 h) was 70% and the mortality at 0.0156 µg/mL (action time 0 h) was 0%. The mortality at 0.0156 µg/mL (action time 12 h) was 10%, the mortality at 0.0156 µg/mL (action time 24 h) was 30% and the mortality at 0.0156 µg/mL (action time 36 h) was 60%. For the same compound, the mortality at 0.0156 µg/mL (action time 48 h) was 70%, the mortality at 0.0156 µg/mL (action time 60 h) was 70% and the mortality at 0.0156 µg/mL (action time 72 h) was 70%. The mortality at 0.0312 µg/mL (action time 0 h) was 0%, the mortality at 0.0312 µg/mL (action time 12 h) was 10% and the mortality at 0.0312 µg/mL (action time 24 h) was 50%. It also gave a mortality at 0.0312 µg/mL (action time 36 h) of 70%, a mortality at 0.0312 µg/mL (action time 48 h) of 80% and a mortality at 0.0312 µg/mL (action time 60 h) of 80%. It also gave a mortality at 0.0312 µg/mL (action time 72 h) of 80%, a mortality at 0.0625 µg/mL (action time 0 h) of 0% and a mortality at 0.0625 µg/mL (action time 12 h) of 30%. It also gave a mortality at 0.0625 µg/mL (action time 24 h) of 50%, a mortality at 0.0625 µg/mL (action time 36 h) of 80% and a mortality at 0.0625 µg/mL (action time 48 h) of 80%. It also gave a mortality at 0.0625 µg/mL (action time 60 h) of 100%, a mortality at 0.0625 µg/mL (action time 72 h) of 100% and a mortality at 0.125 µg/mL (0.125 mg/L, action time 0 h) of 0%. The mortality at 0.125 µg/mL (0.125 mg/L, action time 12 h) was 90%, the mortality at 0.125 µg/mL (0.125 mg/L, action time 24 h) was 100% and the mortality at 0.125 µg/mL (0.125 mg/L, action time 36 h) was 100%. For the same compound, the mortality at 0.125 µg/mL (0.125 mg/L, action time 48 h) was 100%, the mortality at 0.125 µg/mL (0.125 mg/L, action time 60 h) was 100% and the mortality at 0.125 µg/mL (0.125 mg/L, action time 72 h) was 100%. For the same compound, the mortality at 0.25 µg/mL (0.25 mg/L, action time 0 h) was 0%, the mortality at 0.25 µg/mL (0.25 mg/L, action time 12 h) was 100% and the mortality at 0.25 µg/mL (0.25 mg/L, action time 24 h) was 100%. For the same compound, the mortality at 0.25 µg/mL (0.25 mg/L, action time 36 h) was 100%, the mortality at 0.25 µg/mL (0.25 mg/L, action time 48 h) was 100% and the mortality at 0.25 µg/mL (0.25 mg/L, action time 60 h) was 100%. It also gave a mortality at 0.25 µg/mL (0.25 mg/L, action time 72 h) of 100%, a mortality at 0.5 µg/mL (0.5 mg/L, action time 0 h) of 0% and a mortality at 0.5 µg/mL (0.5 mg/L, action time 12 h) of 100%. It also gave a mortality at 0.5 µg/mL (0.5 mg/L, action time 24 h) of 100%, a mortality at 0.5 µg/mL (0.5 mg/L, action time 36 h) of 100% and a mortality at 0.5 µg/mL (0.5 mg/L, action time 48 h) of 100%. The mortality at 0.5 µg/mL (0.5 mg/L, action time 60 h) was 100%, the mortality at 0.5 µg/mL (0.5 mg/L, action time 72 h) was 100% and the “mortality rate of Pomacea canaliculata within 72 h” value (concentration of below 0.0312 mg/L, within 72 h) was under 100%.
